“And” between values parts separate entries of the source, which are not always exact repeats. Identical values can stand only once. Counter-ions that a name gives are not always drawn.
Columns and labels:
[1] = Solubility study of Example 0 in solvents (volumes needed to dissolve the solid); format: physicochemical
Protocol: Previously a solubility study was performed with compound Example 0. The results are shown in Table 1 wherein number of volumes needed to dissolve the solid in the corresponding solvent at room temperature is shown. If at 50 volumes, dissolution was not observed at room temperature, mixture was heated to reflux temperature.

[2] = pKa of the free base compound; format: physicochemical
[3] = acid; cited from earlier work
[4] = Pharmacokinetics after single oral administration to male Wistar rat; format: in vivo
Protocol: The pharmacokinetics of Example 1 and 2 were tested using the following protocol:
Male Wistar rats weighing 250 to 300 g (±20) supplied by Harlan were used. Water and food was available ad libitum throughout the study.
Administration and Sample Collection
Two rats (R1 and R2) were used in the pharmacokinetic oral studies.
A single dose of tested compound was administered by oral gavage [10 mg/kg as free base (Example 0)] in 0.5% hydroxypropyl methylcellulose (1 mg/ml). From each rat, serial blood samples were collected at 15 and 30 min, 1, 2, 3, 5, 7 and 24 h.
Blood was collected from the saphenous veins into heparinized tubes. Plasma was obtained by blood centrifugation at 4° C. and 2280×g for 10 min and kept at −80° C. until analysis.
Tested compound concentration in plasma samples was determined by least-squares linear regression using a ten-point calibration curve. The calibration curve was prepared in blank plasma from a working solution of 1 mg/ml in DMSO.
Samples were thawed at room temperature on the day of analysis. After plasma protein precipitation of samples and calibration standards with acetonitrile (1:4.3; v/v), the mixture was vortexed and centrifuged (4° C. and 16090×g for 10 min).
Tested compound plasma concentrations were determined by high performance liquid chromatography-triple quadrupole mass spectrometry (HPLC-MS/MS) through the following method:
Column: Atlantis® T3 column (2.1×100 mm, 3 μm) (Waters).
Mobile phase: A: 0.0155% Formic water • B: 0.0155% Formic Acetonitrile
Autosampler wash: Solvent 1:Acetonitrile • Solvent 2: 5% Acetonitrile+95% Water
Standard pharmacokinetic parameters, such as area under the curve (AUC), peak plasma concentration (Cmax), time to peak concentration (tmax), oral bioavailability (F), total plasma clearance (Cl), volume of distribution at steady-state (Vss), mean residence time (MRT) and terminal half-life (t1/2), were determined by non-compartmental analysis of the plasma concentration-time curves (Phoenix v. 6.2.1.51, Pharsight, C A).

[5] = Thermodynamic solubility at pH 7.4; format: physicochemical; conditions: maleate
Protocol: General protocol for thermodynamic solubility at pH 7.4 and pH 2 are described. • A) Thermodynamic Solubility at pH 7.4
Phosphate buffer at pH 7.4 (25 mM) was prepared as follows:
A solution 25 mM of Na2HPO4.12H2O (for 1 L of water, weight 8.96 g) was prepared
A solution 25 mM de KH2PO4 (for 1 L of water weight 3.4 g) was prepared.
Disodium phosphate solution (812 mL) and potassium phosphate (182 mL) solution were mixed and pH checked to be 7.4.
Equipment • Precision analytical balance Mettler Toledo AT20. • Analytical balance Mettler Toledo PJ300. • Liquid chromatograph Waters Alliance 2695. • Stirrer Thermomixer Control of Eppendorf a 25° C. y 1250 rpm • pHmeter with combined semi-micro electrode.
Around 4 mg of compound in an HPLC vial (by duplicate) was dissolved in 1 mL of buffer solution. After stirring in Thermomixer Comfort system for 24 hours at 25° C., in order to achieve thermodynamic equilibrium, solution was centrifuged at 3000 rpm for 15 minutes.
The resulting upper layer was collected with a glass pipette and transferred to the HPLC vials in order to inject them (10 μL) directly to the HPLC instrument.
Standards were made in methanol to ensure overall compound solubility. Preparation of standard calibrators is illustrated below:
Sol.A: 4 mg in 1 mL methanol (4000 μg/mL)
Sol.B: 0.5 mL Sol.A to 5 mL with methanol (400 μg/mL)
Sol.C: 1 mL Sol.B to 10 mL with methanol (40 μg/mL)
Sol.D: 5 mL […] to 50 mL with methanol (4 μg/mL)
Sol.E: 4 mL Sol.D to 10 mL with methanol (1.6 μg/mL)
Calibration curve was created through 10 μL injection of standards, beginning with the more diluted standard. Blanks were also injected, for checking the absence of contamination.
10 μl of test substance were injected, by duplicate, and the average peak area interpolated in the calibration curve (see Tables Examples below).
Chromatographic Conditions • Column: XBridge C18 (or similar) 2.5 μm 4.6×50 mm • Temperature: 35° C. • Mobile phase: ACN/ammonium bicarbonate 10 mM. • Gradient: 0-3.5 min: from 15% CAN to 95% CAN • 3.5-5 min: 95% ACN • 5-6 min: 95 a 15% ACN • 6-8 min: 15% ACN • Flow: 1.5 mL/min • Detection: around the maximum UV wavelength. • B) Thermodynamic Solubility at pH 2

[6] = animal 1, 10 mg/kg oral, maleate
[7] = animal 2, 10 mg/kg oral, maleate
[8] = mean of 2 rats, 10 mg/kg oral, listed as example 2, maleate, 10 mg/kg
[9] = mean of 2 rats, 10 mg/kg oral, maleate, 10 mg/kg

SMILES: CC(=O)N1CCN(CCOCc2ccn(-c3ccc(F)c(F)c3)n2)CC1 [Example 0, 1-(4-(2-((1-(3,4-difluorophenyl)-1H-pyrazol-3-yl)methoxy)ethyl)piperazin-1-yl)ethanone]
- number of volumes needed to dissolve the solid ([1]; CH2Cl2, room temperature): 3 volumes
- number of volumes needed to dissolve the solid ([1]; CH3CN, room temperature): 15 volumes
- number of volumes needed to dissolve the solid ([1]; EtOH, room temperature): 4 volumes
- number of volumes needed to dissolve the solid ([1]; H2O, room temperature, heated to reflux at 50 volumes, no dissolution observed): > 50^[1] volumes
- number of volumes needed to dissolve the solid ([1]; MIBK, room temperature): 17 volumes
- number of volumes needed to dissolve the solid ([1]; THF, room temperature): 4 volumes
- pKa [2]: 6.37

SMILES: CC(=O)N1CCN(CCOCc2ccn(-c3ccc(F)c(F)c3)n2)CC1 (as salt: hydrochloride) [Example 1]
- melting point: 155 to 157 °C

SMILES: CCCCCCCC(=O)O [Caprylic acid]
- pKa1 [3]: 4.89

SMILES: O=[N+]([O-])O [Nitric acid]
- pKa1 [3]: Strong

SMILES: CCS(=O)(=O)O [Ethanesulfonic acid]
- pKa1 [3]: 2.05

SMILES: CCCCCC(=O)O [Caproic acid]
- pKa1 [3]: 4.88

SMILES: O=S(=O)(O)c1ccccc1 [Benzensulphonic acid]
- pKa1 [3]: 0.7

SMILES: Br [Hydrobromic acid]
- pKa1 [3]: Strong

SMILES: CC(=O)N1CCN(CCOCc2ccn(-c3ccc(F)c(F)c3)n2)CC1 (as salt: maleate) [Example 2]
- melting point: 160 to 162 °C

SMILES: CC(=O)N1CCN(CCOCc2ccn(-c3ccc(F)c(F)c3)n2)CC1 [Example 2, maleate]
- AUC [4, 6]: 2.227 µg·h/mL
- Cmax [4, 6]: 1.386 µg/mL
- t1/2 [4, 6]: 102 min
- F ([4]; animal 1, 10 mg/kg oral, mean AUC after i.v. administration used for calculation, maleate): 50%
- AUC [4, 7]: 1.768 µg·h/mL
- Cmax [4, 7]: 1.039 µg/mL
- t1/2 [4, 7]: 72 min
- tmax [4, 7]: 30 min
- F ([4]; animal 2, 10 mg/kg oral, mean AUC after i.v. administration used for calculation, maleate): 40%
- AUC [4, 8]: ~2 µg·h/mL
- tmax [4, 8]: 22.8 min
- AUC [4, 9]: 1.997 µg·h/mL
- t1/2 (terminal half-life) [4, 9]: 90 min
- tmax [4, 9]: 24 min
- F (oral bioavailability) ([4]; mean of 2 rats, 10 mg/kg oral, mean AUC after i.v. administration used for calculation, maleate, 10 mg/kg): 45%
- Plasma concentration ([4]; rat R1, 0.5 h, 10 mg/kg oral, maleate, 10 mg/kg): 1.251 µg/mL
- Plasma concentration ([4]; rat R1, 1 h, 10 mg/kg oral, maleate, 10 mg/kg): 0.907 µg/mL
- Plasma concentration ([4]; rat R1, 2 h, 10 mg/kg oral, maleate, 10 mg/kg): 0.289 µg/mL
- Plasma concentration ([4]; rat R1, 3 h, 10 mg/kg oral, maleate, 10 mg/kg): 0.157 µg/mL
- Plasma concentration ([4]; rat R1, 5 h, 10 mg/kg oral, maleate, 10 mg/kg): 0.045 µg/mL
- Plasma concentration ([4]; rat R1, 7 h, 10 mg/kg oral, maleate, 10 mg/kg): 0.041 µg/mL
- Plasma concentration ([4]; rat R2, 0.5 h, 10 mg/kg oral, maleate, 10 mg/kg): 1.039 µg/mL
- Plasma concentration ([4]; rat R2, 1 h, 10 mg/kg oral, maleate, 10 mg/kg): 0.639 µg/mL
- Plasma concentration ([4]; rat R2, 2 h, 10 mg/kg oral, maleate, 10 mg/kg): 0.317 µg/mL
- Plasma concentration ([4]; rat R2, 3 h, 10 mg/kg oral, maleate, 10 mg/kg): 0.095 µg/mL
- Plasma concentration ([4]; rat R2, 5 h, 10 mg/kg oral, maleate, 10 mg/kg): 0.075 µg/mL
- Plasma concentration ([4]; rat R2, 7 h, 10 mg/kg oral, maleate, 10 mg/kg): 0.013 µg/mL
- Conc. Mean ([5]; pH 7.4, mean of 4 injections): 4468.706 µg/mL
- Conc. ([5]; pH 7.4, single HPLC injections of duplicate vials): 4593.8 µg/mL and 4408.7 µg/mL and 4338.8 µg/mL and 4533.6 µg/mL

SMILES: CCCCCCCCCC(=O)O [Capric acid]
- pKa1 [3]: 4.9

— patent US10640468B2, “1-(4-(2-((1-(3,4-difluorophenyl)-1H-pyrazol-3-Yl)methoxy)ethyl)piperazin-1- Yl)ethanone salts” (ESTEVE PHARMACEUTICALS S.A., priority 2015, dated 2020)
